Reference: patent publication US11813230B2, “Composition for strengthening skin barrier, moisturizing skin or anti-aging” (COSMAX, INC., priority 2020, dated 2023)

What was measured:
Conditions in all cases: 37° C., 48 up to 72 hours, well color change
[1] = tested on: S. pneumoniae (CX-2); format: cell-based, Streptococcus pneumoniae
Description: (§1) To analyze substance utilization by the isolated strains (Streptococcus pneumoniae, Streptococcus infantis, and Streptococcus mitis), tests were conducted in the following manner. BioLOG GP2 and API 50 were used in determining the substance utilization, and testing was performed using testing methods provided by Omnilog and Biomeriuse. The culturing temperature and media suitable to corresponding strains were selected, and 5 among cluster colonies incubated for 48 hours were taken and suspended in reagents before use. The inoculation amount was 150 μl. As the suspension, components of kits provided by various manufacturers were used. When the strains are yet to be inoculated, the suspension is in a transparent liquid phase. Inoculated plates and strips were incubated at 37° C. for 48 hours, and then the incubation of up to 72 hours was examined. Wells were in a transparent liquid phase at the time of inoculating, but the colors of the wells changed to purple or red, and the color-changed wells were determined to be positive.

[2] = tested on: S. infantis (CX-4); experiment: Substance utilization (BioLOG GP2 / API 50); format: cell-based, Streptococcus infantis
Description: as §1

[3] = tested on: S. mitis (CX-8); experiment: Substance utilization (BioLOG GP2 / API 50); format: cell-based, Streptococcus mitis
Description: as §1

Row | Molecule | substance utilization by S. pneumoniae (CX-2) [1] | substance utilization by S. infantis (CX-4) [2] | substance utilization by S. mitis (CX-8) [3]
1 | [Cl-].[Na+] [1% NaCl, NaCl] | + | + | +
2 | CC(O)C(=O)[O-].[Na+] (stereo not shown) [1% Sodium Lactate, Sodium Lactate] | + | + | +
3 | OC[C@H]1O[C@@H](O[C@H]2[C@H](O)[C@@H](O)[C@H](O)O[C@@H]2CO)[C@H](O)[C@@H](O)[C@@H]1O [D-Cellobiose] | + | + | +
4 | O=P(O)(O)OC[C@H]1OC(O)(CO)[C@@H](O)[C@@H]1O (stereo partly drawn) [D-Fructose-6-Po4] | – | – | +
5 | OC[C@H]1O[C@H](OCC2O[C@@H](O)[C@H](O)[C@@H](O)[C@@H]2O)[C@H](O)[C@@H](O)[C@H]1O (stereo partly drawn) [D-Melibiose] | + | – | –
6 | OC[C@H]1O[C@H](OC[C@H]2O[C@H](O[C@]3(CO)O[C@H](CO)[C@@H](O)[C@@H]3O)[C@H](O)[C@@H](O)[C@@H]2O)[C@H](O)[C@@H](O)[C@H]1O [D-Raffinose] | + | – | –
7 | OC[C@H]1O[C@H](O[C@H]2[C@H](O)[C@@H](O)[C@H](O)O[C@@H]2CO)[C@H](O)[C@@H](O)[C@@H]1O [D-maltose] | + | + | +
8 | O=C1O[C@H]([C@@H](O)CO)[C@@H](O)[C@@H]1O [L-Galactonic Acid Lactone] | – | – | +
9 | [Cl-].[Li+] [Lithium Chloride] | – | – | +
10 | O=[Te]([O-])[O-].[K+].[K+] [Potassium Tellurite] | + | + | +
11 | CO[C@H]1/C=C/O[C@@]2(C)Oc3c(C)c([O-])c4c(O)c(cc(O)c4c3C2=O)NC(=O)/C(C)=C\C=C\[C@H](C)[C@H](O)[C@@H](C)[C@@H](O)[C@@H](C)[C@H](OC(C)=O)[C@@H]1C.[Na+] [Rifamycin SV] | – | + | +
12 | OC[C@H]1O[C@H](OC[C@H]2O[C@H](OC[C@H]3O[C@H](O[C@]4(CO)O[C@H](CO)[C@@H](O)[C@@H]4O)[C@H](O)[C@@H](O)[C@@H]3O)[C@H](O)[C@@H](O)[C@H]2O)[C@H](O)[C@@H](O)[C@H]1O [Stachyose] | + | + | +
13 | COc1cc(-c2ccc(-n3nc(-c4ccccc4)n[n+]3-c3ccccc3)c(OC)c2)ccc1-n1nc(-c2ccccc2)n[n+]1-c1ccccc1.[Cl-].[Cl-] [Tetrazolium Blue] | – | + | +
14 | D-Salicin | – | – | +
15 | D-Turanose | + | – | –
16 | Dextrin | + | + | +
17 | Pectin | + | + | +
18 | Tween 40 | + | + | –
